According to patent publication US8198317B2, “Methylenedioxy phenolic compounds and their use to treat disease” (The Ohio State University Research Foundation, priority 2008, dated 2012):

Legend:
Acetyl-CoA Oxidase (ACO) = experiment: ACO mRNA (PPARα regulated gene) by RT-PCR in HepG2 cells; format: cell-based, human; settings: HepG2, dose dependent and time dependent
Protocol: ACO is a PPAR-α regulated gene. HepG2 cells were stimulated by INV 75 (100 μM) for the indicated time, the mRNA expression level of ACO was analyzed by real-time RT-PCR. n=3. *, p<0.05 vs 0.
Cells were stimulated with INV-75 for 4 hours, and mRNA expression level of acetyl co-enzyme A oxidase (ACO) analyzed by real-time RT-PCR. n=3. *, p<0.05 vs −8.5.
We used a reporter gene assay in HepG2 cells to screen for agonists of the peroxisome proliferator-activated receptors. Peroxisome proliferator-activated receptors (PPARs) and other members of the nuclear hormone receptor family are important drug targets for the treatment of metabolic diseases. PPARs play crucial roles in lipid and glucose metabolism, respectively. Therefore, screening methods that help to rapidly identify activators of these receptors should be of considerable value. INV-75 activated a classic PPARα gene, Acetyl-CoA Oxidase (ACO) in a dose dependent and time dependent fashion (FIG. 6A). The time course experiment was performed in presence of INV-75 up to 15 hours. […] We next tested the specificity of INV-75 for PPARα by performing experiments in HepG2 cells transfected with yeast GAL4-PPARα-LBD plasmid+UAS-Luciferase; GAL4-PPARδ-LBD plasmid+UAS-Luciferase and GAL4-PPARα-LBD plasmid+UAS-Luciferase. […]

[1] = tested on: Watanabe Heritable Hyperlipidemic Rabbits (WHHL); experiment: Immunohistochemistry and staining of WHHL rabbit aorta; format: in vivo
Protocol: Immunohistochemical staining was performed to assess inflammatory content using the primary antibodies (1:200 concentration) and a detection system (Immunoperoxidase Secondary Detection System; Chemicon International, Temecula, Calif.), and quantified with software (NIH Image) after digitization of the images with a camera system (Zeiss Axioskop with Spot I digital camera). Antibodies against CD68 were purchased from Santa Cruz Biotechnology Incorporated (Santa Cruz, Calif.). A polyclonal anti-α-Actin antibody was obtained from Upstate Cell Signaling Solutions (Lake Placid, N.Y.). T cell receptor β antibody was obtained from Biolegend (San Diego, Calif.). To quantify the staining, the mean density of 4 negative control (no primary antibody) sections was set as the threshold, and positive area was acquired by software. Results were finally normalized by the area subtended by the external elastic lamina to the luminal interface or the intimal-medial volume. The effects of INV-75 on macrophages and smooth muscle cells in comparison to control group were evaluated by CD68 and α-actin immunohistochemistry, respectively. INV-75 decreased the number of macrophages vs. controls and summary of whole groups is represented by bar diagram in FIG. 10 (n=4-5 animals/group). *p<0.05 vs control animals using unpaired t test). […] INV-75 increased the smooth muscle content (% of total area) vs controls and the combined results were represented as a bar diagram n=5/group (n=number of animals used per group). *p<0.05 vs control animals.
Lipid deposition in aorta was identified after total 14 weeks of treatment with drug, rabbits were sacrificed and abdominal aortas were fixed in 4% paraformaldehyde. The lipid deposition in aortic wall was then visualized by oil red staining. […] (FIG. 13).

human full length PPARα = biological target: T1, human full length PPARα (Homo sapiens, UniProt Q07869); experiment: PPARα promoter-reporter luciferase assay in HepG2 cells; format: cell-based
T1 construct: HepG2 cells transfected by full length human PPARα linked to luciferase reporter; expressed in transfected cells; host or cells: HepG2
T1 sequence (Q07869 1-468): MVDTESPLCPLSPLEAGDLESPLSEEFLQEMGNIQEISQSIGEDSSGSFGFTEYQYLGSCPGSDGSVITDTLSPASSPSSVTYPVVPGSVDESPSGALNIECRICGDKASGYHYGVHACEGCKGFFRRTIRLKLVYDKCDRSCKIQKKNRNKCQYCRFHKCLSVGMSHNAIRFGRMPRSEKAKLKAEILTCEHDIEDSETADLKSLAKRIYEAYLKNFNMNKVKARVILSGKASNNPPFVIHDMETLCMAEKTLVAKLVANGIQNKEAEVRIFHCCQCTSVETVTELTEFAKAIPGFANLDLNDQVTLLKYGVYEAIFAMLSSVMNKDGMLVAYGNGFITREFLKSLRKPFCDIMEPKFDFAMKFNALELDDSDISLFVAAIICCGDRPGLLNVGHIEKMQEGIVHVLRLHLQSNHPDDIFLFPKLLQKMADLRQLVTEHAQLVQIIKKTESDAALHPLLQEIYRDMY
Text: HepG2 cells were transfected with the full length PPARα promoter reporter construct and stimulated by INV-75 ([…]). Results in C are expressed as % increase compared to WY 14643.
We used a reporter gene assay in HepG2 cells to screen for agonists of the peroxisome proliferator-activated receptors. Peroxisome proliferator-activated receptors (PPARs) and other members of the nuclear hormone receptor family are important drug targets for the treatment of metabolic diseases. PPARs play crucial roles in lipid and glucose metabolism, respectively. Therefore, screening methods that help to rapidly identify activators of these receptors should be of considerable value. INV-75 activated a classic PPARα gene, Acetyl-CoA Oxidase (ACO) in a dose dependent and time dependent fashion (FIG. 6A). The time course experiment was performed in presence of INV-75 up to 15 hours. […] We next tested the specificity of INV-75 for PPARα by performing experiments in HepG2 cells transfected with yeast GAL4-PPARα-LBD plasmid+UAS-Luciferase; GAL4-PPARδ-LBD plasmid+UAS-Luciferase and […]. The PPARα, PPARδ and PPARγ binding assays were performed using multiple concentrations of INV-75 (1 μM, 10 μM, 100 μM and 1000 μM). The level of luciferase activity corresponded to the degree of PPAR activation. The results were compared with classic PPAR agonists such as WY-14643 (PPARα agonist), Bezafibrate (PPARδ agonist) and Rosiglitazone ([…]).

Individuals = experiment: Treatment of inflammatory arthritis (Example 26); format: in vivo, human; settings: oral, 6 months
Text: Individuals with rheumatoid arthritis, psoriatic arthritis and systemic lupus erythematosis suffer from recurrent bouts of inflammatory arthritis. They are usually on treatments such as non-steroidal agents such as cyclooxygenase inhibitors, anti-TNFα treatments and other types of immunotherapy. In addition to these treatments they will also receive an acceptable dose of a composition comprising a compound of the present invention in an acceptable carrier orally chronically for durations in excess of 6 months. In one study, 3,4-methylenedioxy-6-nitrophenyl acetate (INV 75) is administered to these individuals. The patients undergo an assessment of joint pains and inflammatory markers such as C-reactive protein (CRP) and erythrocyte sedimentation rate.

For `CC(=O)Oc1cc2c(cc1[N+](=O)[O-])OCO2` [INV-75, 3,4-methylenedioxy-6-nitrophenyl acetate], the “Acetyl-CoA Oxidase (ACO) gene activation” value (Acetyl-CoA Oxidase (ACO)) was “activated”, the “collagen content (Masson's trichrome)” value ([1]; WHHL abdominal aorta, vs control group) was “reduction” and the “lipid component (Oil Red O)” value ([1]; WHHL abdominal aorta, vs controls) was “decreased”. The “number of macrophages (CD68)” value ([1]; WHHL aorta, vs controls) was “decreased”, the “smooth muscle content (% of total area, α-actin)” value ([1]; WHHL aorta, vs controls) was “increased” and the luciferase activation (human full length PPARα; HepG2 transfected with PPARα promoter-reporter construct) was “increased”. For the same compound, the “persistence of effects on PPARα activation” value (human full length PPARα; time course) was “up to 15 hours”, the “time of onset of PPARα activation” value (human full length PPARα; time course) was under 1 h and the “joint pains and markers of inflammation” value (Individuals) was “marked improvement”.
